Source: ChEMBL document CHEMBL1201862, “PubChem BioAssay data set” (2004)
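Results reflect a 48-hour exposure of cells in 96-well plates to compound at five concentrations. GI50 is the concentration that inhibits growth by half.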 Activity calls are given as the source filed them. Cut-off read from the data, not from the text of the source: active = GI50 up to about 1.1 µM and inactive = higher.

Assays:
Test in all cases: NCI-60 cell line screen, 48 h
786-0 = test system: 786-0
A498 = test system: A498
A549 = test system: A549
CAKI-1 = test system: CAKI-1
CCRF-CEM = test system: CCRF-CEM
COLO 205 = test system: COLO 205
DLD-1 = test system: DLD-1
DMS-114 = test system: DMS-114
EKVX = test system: EKVX
HCC 2998 = test system: HCC 2998
HCT-116 = test system: HCT-116
HL-60 = test system: HL-60
HOP-18 = test system: HOP-18
HOP-62 = test system: HOP-62
HOP-92 = test system: HOP-92
HT-29 = test system: HT-29
IGROV-1 = test system: IGROV-1
K562 = test system: K562
KM-20L2 = test system: KM-20L2
KM12 = test system: KM12
LOX IMVI = test system: LOX IMVI
LXFL 529 = test system: LXFL 529
M14 = test system: M14
M19-MEL = test system: M19-MEL
MOLT-4 = test system: MOLT-4
Malme-3M = test system: Malme-3M
NCI-H226 = test system: NCI-H226
NCI-H23 = test system: NCI-H23
NCI-H460 = test system: NCI-H460
NCI-H522 = test system: NCI-H522
OVCAR-3 = test system: OVCAR-3
OVCAR-4 = test system: OVCAR-4
OVCAR-5 = test system: OVCAR-5
OVCAR-8 = test system: OVCAR-8
RPMI-8226 = test system: RPMI-8226
RXF 393 = test system: RXF 393
RXF 631 = test system: RXF 631
SF-268 = test system: SF-268
SF-295 = test system: SF-295
SF-539 = test system: SF-539
SK-MEL-28 = test system: SK-MEL-28
SK-MEL-2 = test system: SK-MEL-2
SK-MEL-5 = test system: SK-MEL-5
SK-OV-3 = test system: SK-OV-3
SN12C = test system: SN12C
SNB-19 = test system: SNB-19
SNB-75 = test system: SNB-75
SNB-78 = test system: SNB-78
SW-620 = test system: SW-620
TK-10 = test system: TK-10
U-251 = test system: U-251
UACC-257 = test system: UACC-257
UACC-62 = test system: UACC-62
UO-31 = test system: UO-31
XF498 = test system: XF498
DMS-273 = test system: DMS-273
HCT-15 = test system: HCT-15
ACHN = test system: ACHN

SMILES: CCOC(=O)C1=C(Nc2ccccc2)OC/C1=N\NC(=O)Cc1ccccc1
- GI50 (786-0): > 50 µM (inactive)
- GI50 (A498): > 50 µM (inactive)
- GI50 (A549): > 50 µM (inactive)
- GI50 (CAKI-1): > 50 µM (inactive)
- GI50 (CCRF-CEM): > 50 µM (inactive)
- GI50 (COLO 205): > 50 µM (inactive)
- GI50 (DLD-1): > 50 µM (inactive)
- GI50 (DMS-114): > 50 µM (inactive)
- GI50 (EKVX): > 50 µM (inactive)
- GI50 (HCC 2998): > 50 µM (inactive)
- GI50 (HCT-116): > 50 µM (inactive)
- GI50 (HL-60): > 50 µM (inactive)
- GI50 (HOP-18): > 50 µM (inactive)
- GI50 (HOP-62): > 50 µM (inactive)
- GI50 (HOP-92): > 50 µM (inactive)
- GI50 (HT-29): > 50 µM (inactive)
- GI50 (IGROV-1): > 50 µM (inactive)
- GI50 (K562): > 50 µM (inactive)
- GI50 (KM-20L2): > 50 µM (inactive)
- GI50 (KM12): > 50 µM (inactive)
- GI50 (LOX IMVI): > 50 µM (inactive)
- GI50 (LXFL 529): > 50 µM (inactive)
- GI50 (M14): > 50 µM (inactive)
- GI50 (M19-MEL): > 50 µM (inactive)
- GI50 (MOLT-4): > 50 µM (inactive)
- GI50 (Malme-3M): > 50 µM (inactive)
- GI50 (NCI-H226): > 50 µM (inactive)
- GI50 (NCI-H23): > 50 µM (inactive)
- GI50 (NCI-H460): > 50 µM (inactive)
- GI50 (NCI-H522): > 50 µM (inactive)
- GI50 (OVCAR-3): > 50 µM (inactive)
- GI50 (OVCAR-4): > 50 µM (inactive)
- GI50 (OVCAR-5): > 50 µM (inactive)
- GI50 (OVCAR-8): > 50 µM (inactive)
- GI50 (RPMI-8226): > 50 µM (inactive)
- GI50 (RXF 393): > 50 µM (inactive)
- GI50 (RXF 631): > 50 µM (inactive)
- GI50 (SF-268): > 50 µM (inactive)
- GI50 (SF-295): > 50 µM (inactive)
- GI50 (SF-539): > 50 µM (inactive)
- GI50 (SK-MEL-28): > 50 µM (inactive)
- GI50 (SK-MEL-2): > 50 µM (inactive)
- GI50 (SK-MEL-5): > 50 µM (inactive)
- GI50 (SK-OV-3): > 50 µM (inactive)
- GI50 (SN12C): > 50 µM (inactive)
- GI50 (SNB-19): > 50 µM (inactive)
- GI50 (SNB-75): 31.4 µM (inactive)
- GI50 (SNB-78): > 50 µM (inactive)
- GI50 (SW-620): > 50 µM (inactive)
- GI50 (TK-10): > 50 µM (inactive)
- GI50 (U-251): > 50 µM (inactive)
- GI50 (UACC-257): > 50 µM (inactive)
- GI50 (UACC-62): > 50 µM (inactive)
- GI50 (UO-31): > 50 µM (inactive)
- GI50 (XF498): > 50 µM (inactive)

SMILES: CCCCC1=CSC(c2ccccc2)=C(c2ccccc2)S1
- GI50 (786-0): 87.5 µM (inactive)
- GI50 (A498): > 100 µM (inactive)
- GI50 (A549): 64.1 µM (inactive)
- GI50 (CCRF-CEM): 21.6 µM (inactive)
- GI50 (COLO 205): > 100 µM (inactive)
- GI50 (DLD-1): 82.6 µM (inactive)
- GI50 (DMS-114): > 100 µM (inactive)
- GI50 (DMS-273): 26.7 µM (inactive)
- GI50 (EKVX): > 100 µM (inactive)
- GI50 (HCC 2998): 37.6 µM (inactive)
- GI50 (HCT-116): 6.46 µM (inactive)
- GI50 (HCT-15): 26.2 µM
- GI50 (HOP-18): > 100 µM (inactive)
- GI50 (HOP-92): 11.7 µM (inactive)
- GI50 (HT-29): 33.6 µM (inactive)
- GI50 (IGROV-1): > 100 µM (inactive)
- GI50 (K562): 8.83 µM (inactive)
- GI50 (KM-20L2): 42.8 µM (inactive)
- GI50 (KM12): 42.3 µM (inactive)
- GI50 (LOX IMVI): 20.1 µM (inactive)
- GI50 (LXFL 529): 8.28 µM (inactive)
- GI50 (M14): 85.1 µM (inactive)
- GI50 (M19-MEL): 38.9 µM (inactive)
- GI50 (MOLT-4): 8.97 µM (inactive)
- GI50 (NCI-H226): > 100 µM (inactive)
- GI50 (NCI-H23): 36.1 µM (inactive)
- GI50 (NCI-H460): 53.1 µM (inactive)
- GI50 (OVCAR-3): 60.4 µM (inactive)
- GI50 (OVCAR-4): 37.6 µM (inactive)
- GI50 (OVCAR-8): 73.8 µM (inactive)
- GI50 (RPMI-8226): 9.23 µM (inactive)
- GI50 (RXF 631): > 100 µM (inactive)
- GI50 (SF-295): 36.5 µM (inactive)
- GI50 (SF-539): > 100 µM (inactive)
- GI50 (SK-MEL-28): 63.5 µM (inactive)
- GI50 (SK-MEL-5): 23.9 µM (inactive)
- GI50 (SK-OV-3): > 100 µM (inactive)
- GI50 (SN12C): 97.5 µM (inactive)
- GI50 (SNB-19): 43.3 µM (inactive)
- GI50 (SNB-75): 57 µM (inactive)
- GI50 (SNB-78): > 100 µM (inactive)
- GI50 (SW-620): 69 µM (inactive)
- GI50 (TK-10): > 100 µM (inactive)
- GI50 (U-251): 30.9 µM (inactive)
- GI50 (UACC-62): 40.5 µM (inactive)
- GI50 (UO-31): > 100 µM (inactive)

SMILES: Cc1ccc(C2=C(c3ccccc3)C(Br)(c3ccc(C)cc3)C(c3ccccc3)=C2c2ccc(C)cc2)cc1
- GI50 (786-0): > 100 µM (inactive)
- GI50 (A498): > 100 µM (inactive)
- GI50 (A549): > 100 µM (inactive)
- GI50 (ACHN): > 100 µM (inactive)
- GI50 (CAKI-1): > 100 µM (inactive)
- GI50 (CCRF-CEM): > 100 µM (inactive)
- GI50 (COLO 205): > 100 µM (inactive)
- GI50 (DLD-1): > 100 µM (inactive)
- GI50 (DMS-114): > 100 µM (inactive)
- GI50 (DMS-273): > 100 µM (inactive)
- GI50 (EKVX): > 100 µM (inactive)
- GI50 (HCC 2998): > 100 µM (inactive)
- GI50 (HCT-116): > 100 µM (inactive)
- GI50 (HCT-15): > 100 µM
- GI50 (HL-60): > 100 µM (inactive)
- GI50 (HOP-18): 2.09 µM (inactive)
- GI50 (HOP-62): > 100 µM (inactive)
- GI50 (HOP-92): > 100 µM (inactive)
- GI50 (IGROV-1): > 100 µM (inactive)
- GI50 (K562): > 100 µM (inactive)
- GI50 (KM-20L2): > 100 µM (inactive)
- GI50 (KM12): > 100 µM (inactive)
- GI50 (LOX IMVI): > 100 µM (inactive)
- GI50 (LXFL 529): > 100 µM (inactive)
- GI50 (M14): > 100 µM (inactive)
- GI50 (M19-MEL): > 100 µM (inactive)
- GI50 (MOLT-4): > 100 µM (inactive)
- GI50 (Malme-3M): > 100 µM (inactive)
- GI50 (NCI-H23): > 100 µM (inactive)
- GI50 (NCI-H460): > 100 µM (inactive)
- GI50 (OVCAR-3): > 100 µM (inactive)
- GI50 (OVCAR-4): > 100 µM (inactive)
- GI50 (OVCAR-5): > 100 µM (inactive)
- GI50 (OVCAR-8): > 100 µM (inactive)
- GI50 (RPMI-8226): > 100 µM (inactive)
- GI50 (RXF 631): > 100 µM (inactive)
- GI50 (SF-268): > 100 µM (inactive)
- GI50 (SF-295): > 100 µM (inactive)
- GI50 (SF-539): > 100 µM (inactive)
- GI50 (SK-MEL-28): > 100 µM (inactive)
- GI50 (SK-MEL-2): > 100 µM (inactive)
- GI50 (SK-MEL-5): > 100 µM (inactive)
- GI50 (SK-OV-3): > 100 µM (inactive)
- GI50 (SN12C): > 100 µM (inactive)
- GI50 (SNB-19): > 100 µM (inactive)
- GI50 (SNB-78): > 100 µM (inactive)
- GI50 (SW-620): > 100 µM (inactive)
- GI50 (TK-10): > 100 µM (inactive)
- GI50 (U-251): > 100 µM (inactive)
- GI50 (UACC-257): > 100 µM (inactive)
- GI50 (UACC-62): > 100 µM (inactive)
- GI50 (XF498): > 100 µM (inactive)
